The text below walks through data of patent publication US20260022142A1, “MACROCYCLIC IMMUNOMODULATORS” (Bristol-Myers Squibb Company, priority 2022, published 2026).

Usually IC50 stands for the concentration needed to halve the response being measured.

Bridge positions count the residues as written; N and C are the ends. Square brackets hold non-standard residues; d marks the D form. Peptide text beside a SMILES is read from it. * marks the point of attachment. Phe(4-COOH) = N[C@@H](Cc1ccc(C(=O)O)cc1)C(=O)O; Phe(2-CF3) = N[C@@H](Cc1ccccc1C(F)(F)F)C(=O)O; Phe(3,5-F2) = N[C@@H](Cc1cc(F)cc(F)c1)C(=O)O; Phe(2,4-F2) = N[C@@H](Cc1ccc(F)cc1F)C(=O)O; Bip = N[C@@H](Cc1ccc(-c2ccccc2)cc1)C(=O)O; Phe(3-F) = N[C@@H](Cc1cccc(F)c1)C(=O)O; Phe(3-Me) = Cc1cccc(C[C@H](N)C(=O)O)c1; Phe(4-F) = N[C@@H](Cc1ccc(F)cc1)C(=O)O; Phe(2-F) = N[C@@H](Cc1ccccc1F)C(=O)O; Val(3-OH) = CC(C)(O)[C@H](N)C(=O)O; Cha = N[C@@H](CC1CCCCC1)C(=O)O; Carboxymethyl = O=C(O)C*; Nle = CCCC[C@H](N)C(=O)O; Orn = NCCC[C@H](N)C(=O)O; Aun = NCCCCCCCCCCC(=O)O; Dab = NCC[C@H](N)C(=O)O; Nva = CCC[C@H](N)C(=O)O; Dap = NC[C@H](N)C(=O)O; AEEA = NCCOCCOCC(=O)O

T1 sequence (Q15116 25-288): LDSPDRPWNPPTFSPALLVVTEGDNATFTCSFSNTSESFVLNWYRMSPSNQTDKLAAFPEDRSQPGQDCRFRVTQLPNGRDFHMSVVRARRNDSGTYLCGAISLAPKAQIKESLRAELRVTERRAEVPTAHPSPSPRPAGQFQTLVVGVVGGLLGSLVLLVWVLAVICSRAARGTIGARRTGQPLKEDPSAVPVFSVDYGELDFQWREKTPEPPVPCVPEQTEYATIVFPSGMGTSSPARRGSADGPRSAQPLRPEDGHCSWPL

The experiment has as its target T1, PD-1/PD-L1 interaction (PE-labeled human PD-L1-Ig binding to Jurkat cell line over-expressing human PD-1) (Homo sapiens, UniProt Q15116).
T1 construct: expressed in transfected cells; host or cells: Jurkat
Briefly: Jurkat-PD-1 Cell Binding High-Content Screening Assay (CBA). The experiment is classed as cell-based. As to conditions: Jurkat cell line over-expressing human PD-1; PE-labeled PD-L1-Ig 20 nM final; read-out: Jurkat hPD1-PDL1 IC50. Put shortly: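 Human PD-L1-Ig carrying a covalent PE label on its Ig tag serves as the probe, applied at 20 nM final to compound-treated (2 h, 37° C) Jurkat-hPD-1 cells in medium with 10% fetal calf serum. After one hour, fixation and nuclear staining precede high-content image analysis.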
Consider `CCCC[C@@H]1NC(=O)[C@H](CCN)NC(=O)[C@@H](CC(C)C)NC(=O)[C@H](CCCN)NC(=O)[C@H](Cc2ccc(OCC(=O)O)cc2)NC(=O)[C@H](Cc2ccc(-c3ccccc3)cc2)NC(=O)[C@H](Cc2ccc(OCC(=O)O)cc2)NC(=O)[C@H](Cc2cccc(C)c2)NC(=O)[C@H](CC(=O)O)NC(=O)[C@H](Cc2ccc(OCC(=O)O)cc2)NC(=O)[C@H](CN)NC(=O)CSC[C@@H](C(=O)N[C@@H](CCN)C(=O)NCCOCCOCC(=O)NCCCCCCCCCCC(=O)O)NC(=O)[C@H](CCC(=O)O)NC(=O)[C@H](C(C)C)NC1=O` [Compound 1258] ({CH2CO}-[Dap]Y(Carboxymethyl)D[Phe(3-Me)]Y(Carboxymethyl)[Bip]Y(Carboxymethyl)[Orn][dL][Dab][Nle]VEC[Dab][AEEA][Aun]-OH; thioether N-14), for which the IC50 came out at 44.6 nM.
The result for `CCC[C@@H]1NC(=O)[C@H](CCN)NC(=O)[C@@H](CC(C)C)NC(=O)[C@H](CCCN)NC(=O)[C@H](Cc2ccc(OCC(=O)O)cc2)NC(=O)[C@H](Cc2ccc(-c3ccccc3)cc2)NC(=O)[C@H](Cc2ccc(OCC(=O)O)cc2)NC(=O)[C@H](Cc2cccc(C)c2)NC(=O)[C@H](CC(=O)O)NC(=O)[C@H](Cc2ccc(OCC(=O)O)cc2)NC(=O)[C@H](CN)NC(=O)CSC[C@@H](C(=O)N[C@@H](CCN)C(=O)NCCOCCOCC(=O)NCCCCCCCCCCC(=O)O)NC(=O)[C@H](CCC(=O)O)NC(=O)[C@H](C(C)C)NC1=O` [Compound 1259] ({CH2CO}-[Dap]Y(Carboxymethyl)D[Phe(3-Me)]Y(Carboxymethyl)[Bip]Y(Carboxymethyl)[Orn][dL][Dab][Nva]VEC[Dab][AEEA][Aun]-OH; thioether N-14) reads 153 nM; that for `Cc1cccc(C[C@@H]2NC(=O)[C@H](CC(=O)O)NC(=O)[C@H](Cc3ccc(OCC(=O)O)cc3)NC(=O)[C@H](CN)NC(=O)CSC[C@@H](C(=O)N[C@@H](CCN)C(=O)NCCOCCOCC(=O)NCCCCCCCCCCC(=O)O)NC(=O)[C@H](CCC(=O)O)NC(=O)[C@H](C(C)C)NC(=O)[C@H](Cc3ccccc3)NC(=O)[C@H](CCN)NC(=O)[C@@H](CC(C)C)NC(=O)[C@H](CCCN)NC(=O)[C@H](Cc3ccc(OCC(=O)O)cc3)NC(=O)[C@H](Cc3ccc(-c4ccccc4)cc3)NC(=O)[C@H](Cc3ccc(OCC(=O)O)cc3)NC2=O)c1` [Compound 1261] ({CH2CO}-[Dap]Y(Carboxymethyl)D[Phe(3-Me)]Y(Carboxymethyl)[Bip]Y(Carboxymethyl)[Orn][dL][Dab]FVEC[Dab][AEEA][Aun]-OH; thioether N-14), 9.3 nM.
As for `Cc1cccc(C[C@@H]2NC(=O)[C@H](CC(=O)O)NC(=O)[C@H](Cc3ccc(OCC(=O)O)cc3)NC(=O)[C@H](CC3CCCCC3)NC(=O)CSC[C@@H](C(=O)N[C@@H](CCN)C(=O)NCCOCCOCC(=O)NCCCCCCCCCCC(=O)O)NC(=O)[C@H](CO)NC(=O)[C@H](C(C)(C)O)NC(=O)[C@H](CC3CCCCC3)NC(=O)[C@H](CCN)NC(=O)[C@@H](CC(C)C)NC(=O)[C@H](CCCN)NC(=O)[C@H](Cc3ccc(OCC(=O)O)cc3)NC(=O)[C@H](Cc3ccc(-c4ccccc4)cc3)NC(=O)[C@H](Cc3ccc(OCC(=O)O)cc3)NC2=O)c1` [Compound 1263] ({CH2CO}-[Cha]Y(Carboxymethyl)D[Phe(3-Me)]Y(Carboxymethyl)[Bip]Y(Carboxymethyl)[Orn][dL][Dab][Cha][Val(3-OH)]SC[Dab][AEEA][Aun]-OH; thioether N-14), the IC50 is 5.6 nM.
Then `Cc1cccc(C[C@@H]2NC(=O)[C@H](CC(=O)O)NC(=O)[C@H](Cc3ccc(OCC(=O)O)cc3)NC(=O)[C@H](CN)NC(=O)CSC[C@@H](C(=O)N[C@@H](CCN)C(=O)NCCOCCOCC(=O)NCCCCCCCCCCC(=O)O)NC(=O)[C@H](CCC(=O)O)NC(=O)[C@H](C(C)C)NC(=O)[C@H](Cc3ccccc3F)NC(=O)[C@H](CCN)NC(=O)[C@@H](CC(C)C)NC(=O)[C@H](CCCN)NC(=O)[C@H](Cc3ccc(OCC(=O)O)cc3)NC(=O)[C@H](Cc3ccc(-c4ccccc4)cc3)NC(=O)[C@H](Cc3ccc(C(=O)O)cc3)NC2=O)c1` [Compound 1266] ({CH2CO}-[Dap]Y(Carboxymethyl)D[Phe(3-Me)][Phe(4-COOH)][Bip]Y(Carboxymethyl)[Orn][dL][Dab][Phe(2-F)]VEC[Dab][AEEA][Aun]-OH; thioether N-14), with 14 nM.
Consider `Cc1cccc(C[C@@H]2NC(=O)[C@H](CC(=O)O)NC(=O)[C@H](Cc3ccc(OCC(=O)O)cc3)NC(=O)[C@H](CN)NC(=O)CSC[C@@H](C(=O)N[C@@H](CCN)C(=O)NCCOCCOCC(=O)NCCCCCCCCCCC(=O)O)NC(=O)[C@H](CCC(=O)O)NC(=O)[C@H](C(C)C)NC(=O)[C@H](Cc3ccccc3C(F)(F)F)NC(=O)[C@H](CCN)NC(=O)[C@@H](CC(C)C)NC(=O)[C@H](CCCN)NC(=O)[C@H](Cc3ccc(OCC(=O)O)cc3)NC(=O)[C@H](Cc3ccc(-c4ccccc4)cc3)NC(=O)[C@H](Cc3ccc(C(=O)O)cc3)NC2=O)c1` [Compound 1267] ({CH2CO}-[Dap]Y(Carboxymethyl)D[Phe(3-Me)][Phe(4-COOH)][Bip]Y(Carboxymethyl)[Orn][dL][Dab][Phe(2-CF3)]VEC[Dab][AEEA][Aun]-OH; thioether N-14), for which the concentration for half-maximal inhibition (IC50) was 15.2 nM.
The result for `Cc1cccc(C[C@@H]2NC(=O)[C@H](CC(=O)O)NC(=O)[C@H](Cc3ccc(OCC(=O)O)cc3)NC(=O)[C@H](CN)NC(=O)CSC[C@@H](C(=O)N[C@@H](CCN)C(=O)NCCOCCOCC(=O)NCCCCCCCCCCC(=O)O)NC(=O)[C@H](CCC(=O)O)NC(=O)[C@H](C(C)C)NC(=O)[C@H](Cc3cccc(F)c3)NC(=O)[C@H](CCN)NC(=O)[C@@H](CC(C)C)NC(=O)[C@H](CCCN)NC(=O)[C@H](Cc3ccc(OCC(=O)O)cc3)NC(=O)[C@H](Cc3ccc(-c4ccccc4)cc3)NC(=O)[C@H](Cc3ccc(C(=O)O)cc3)NC2=O)c1` [Compound 1268] ({CH2CO}-[Dap]Y(Carboxymethyl)D[Phe(3-Me)][Phe(4-COOH)][Bip]Y(Carboxymethyl)[Orn][dL][Dab][Phe(3-F)]VEC[Dab][AEEA][Aun]-OH; thioether N-14) reads 13.2 nM.
Then `Cc1cccc(C[C@@H]2NC(=O)[C@H](CC(=O)O)NC(=O)[C@H](Cc3ccc(OCC(=O)O)cc3)NC(=O)[C@H](CN)NC(=O)CSC[C@@H](C(=O)N[C@@H](CCN)C(=O)NCCOCCOCC(=O)NCCCCCCCCCCC(=O)O)NC(=O)[C@H](CCC(=O)O)NC(=O)[C@H](C(C)C)NC(=O)[C@H](Cc3cc(F)cc(F)c3)NC(=O)[C@H](CCN)NC(=O)[C@@H](CC(C)C)NC(=O)[C@H](CCCN)NC(=O)[C@H](Cc3ccc(OCC(=O)O)cc3)NC(=O)[C@H](Cc3ccc(-c4ccccc4)cc3)NC(=O)[C@H](Cc3ccc(C(=O)O)cc3)NC2=O)c1` [Compound 1269] ({CH2CO}-[Dap]Y(Carboxymethyl)D[Phe(3-Me)][Phe(4-COOH)][Bip]Y(Carboxymethyl)[Orn][dL][Dab][Phe(3,5-F2)]VEC[Dab][AEEA][Aun]-OH; thioether N-14), with 11.4 nM; and `Cc1cccc(C[C@@H]2NC(=O)[C@H](CC(=O)O)NC(=O)[C@H](Cc3ccc(OCC(=O)O)cc3)NC(=O)[C@H](CN)NC(=O)CSC[C@@H](C(=O)N[C@@H](CCN)C(=O)NCCOCCOCC(=O)NCCCCCCCCCCC(=O)O)NC(=O)[C@H](CCC(=O)O)NC(=O)[C@H](C(C)C)NC(=O)[C@H](Cc3ccc(F)cc3)NC(=O)[C@H](CCN)NC(=O)[C@@H](CC(C)C)NC(=O)[C@H](CCCN)NC(=O)[C@H](Cc3ccc(OCC(=O)O)cc3)NC(=O)[C@H](Cc3ccc(-c4ccccc4)cc3)NC(=O)[C@H](Cc3ccc(C(=O)O)cc3)NC2=O)c1` [Compound 1270] ({CH2CO}-[Dap]Y(Carboxymethyl)D[Phe(3-Me)][Phe(4-COOH)][Bip]Y(Carboxymethyl)[Orn][dL][Dab][Phe(4-F)]VEC[Dab][AEEA][Aun]-OH; thioether N-14), with 48.4 nM; and `Cc1cccc(C[C@@H]2NC(=O)[C@H](CC(=O)O)NC(=O)[C@H](Cc3ccc(OCC(=O)O)cc3)NC(=O)[C@H](CN)NC(=O)CSC[C@@H](C(=O)N[C@@H](CCN)C(=O)NCCOCCOCC(=O)NCCCCCCCCCCC(=O)O)NC(=O)[C@H](CCC(=O)O)NC(=O)[C@H](C(C)C)NC(=O)[C@H](Cc3cccc(C)c3)NC(=O)[C@H](CCN)NC(=O)[C@@H](CC(C)C)NC(=O)[C@H](CCCN)NC(=O)[C@H](Cc3ccc(OCC(=O)O)cc3)NC(=O)[C@H](Cc3ccc(-c4ccccc4)cc3)NC(=O)[C@H](Cc3ccc(C(=O)O)cc3)NC2=O)c1` [Compound 1271] ({CH2CO}-[Dap]Y(Carboxymethyl)D[Phe(3-Me)][Phe(4-COOH)][Bip]Y(Carboxymethyl)[Orn][dL][Dab][Phe(3-Me)]VEC[Dab][AEEA][Aun]-OH; thioether N-14), with 19.9 nM.
The result for `Cc1cccc(C[C@@H]2NC(=O)[C@H](CC(=O)O)NC(=O)[C@H](Cc3ccc(OCC(=O)O)cc3)NC(=O)[C@H](CN)NC(=O)CSC[C@@H](C(=O)N[C@@H](CCN)C(=O)NCCOCCOCC(=O)NCCCCCCCCCCC(=O)O)NC(=O)[C@H](CCC(=O)O)NC(=O)[C@H](C(C)C)NC(=O)[C@H](Cc3ccc(F)cc3F)NC(=O)[C@H](CCN)NC(=O)[C@@H](CC(C)C)NC(=O)[C@H](CCCN)NC(=O)[C@H](Cc3ccc(OCC(=O)O)cc3)NC(=O)[C@H](Cc3ccc(-c4ccccc4)cc3)NC(=O)[C@H](Cc3ccc(C(=O)O)cc3)NC2=O)c1` [Compound 1272] ({CH2CO}-[Dap]Y(Carboxymethyl)D[Phe(3-Me)][Phe(4-COOH)][Bip]Y(Carboxymethyl)[Orn][dL][Dab][Phe(2,4-F2)]VEC[Dab][AEEA][Aun]-OH; thioether N-14) reads 74.2 nM.
